The values that follow come from PubChem BioAssay AID330 (DTP/NCI, 2004).

This test deals with P388 leukemia ip, CD2F1 mice, survival T/C. Briefly: NCI In Vivo Anticancer Drug Screen. Data for tumor model P388 Leukemia (intraperitoneal) in CD2F1 (CDF1) mice. Particulars: endpoint: median survival time, higher = longer survival. In a few lines: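 Mice carrying the transplanted tumor received test compound or vehicle. Survival was recorded in each group, and the value is the treated-group measurement divided by that of the vehicle-treated control group.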

[1] abbreviates: dose: 12.5 mg/kg/injection, schedule: Q01DX009 (ip), vehicle: saline with Tween-80.
Setting [2] is: dose: 50.0 mg/kg/injection, schedule: Q01DX009 (ip), vehicle: saline with Tween-80.
[3] abbreviates: dose: 50.0 mg/kg/injection, schedule: Q01DX009 (ip), vehicle: saline.
Setting [4] is: dose: 100.0 mg/kg/injection, schedule: Q01DX009 (ip), vehicle: saline with Tween-80.
The mark [5] stands for this setting: dose: 100.0 mg/kg/injection, schedule: Q01DX009 (ip), vehicle: saline.
[6] abbreviates: dose: 200.0 mg/kg/injection, schedule: Q01DX009 (ip), vehicle: saline.
[7] abbreviates: dose: 50.0 mg/kg/injection, schedule: Q01DX009 (ip), vehicle: Klucel (hydroxypropylcellulose) (HPC).
Setting [8] is: dose: 100.0 mg/kg/injection, schedule: Q01DX009 (ip), vehicle: Klucel (hydroxypropylcellulose) (HPC).
Setting [9] is: dose: 50.0 mg/kg/injection, schedule: Q01DX005 (ip), vehicle: saline with Tween-80.

Where “and” joins values, the source holds several entries; their conditions need not be identical. Identical values can stand only once. Toxic doses and inconclusive results are not listed.

As for `CCNCc1c(C)nc2ccc(N(C)C)cc2c1Cl`, the T/C was 91 % of control under setting [1]; 104 % of control (dose: 25.0 mg/kg/injection, schedule: Q01DX009 (ip), vehicle: saline with Tween-80); 88 % of control under setting [2].
For `CNc1c(NC)n(C)c(=O)n(C)c1=O`, the T/C reads like this: under setting [2], 90 % of control; under setting [3], 109 % of control; under setting [4], 105 % of control and 97 % of control; under setting [5], 109 % of control; (dose: 200.0 mg/kg/injection, schedule: Q01DX009 (ip), vehicle: saline with Tween-80) 121 % of control and 97 % of control; under setting [6], 106 % of control. The T/C (dose: 400.0 mg/kg/injection, schedule: Q01DX009 (ip), vehicle: saline with Tween-80) is 100 % of control and 112 % of control.
For `CN(C)c1ccc(N=Nc2cc3c4ccccc4ccc3c3ccccc23)cc1`, the T/C under setting [7] is 109 % of control; the T/C under setting [8] was 114 % of control; the T/C (dose: 200.0 mg/kg/injection, schedule: Q01DX009 (ip), vehicle: Klucel (hydroxypropylcellulose) (HPC)) was 117 % of control.
Turning to `COc1ccc(CCNC(=O)Cc2ccc(Cl)cc2)cc1OC`, the T/C is, setting by setting: (dose: 60.0 mg/kg/injection, schedule: Q01DX005 (ip), vehicle: saline with Tween-80) 99 % of control; (dose: 120.0 mg/kg/injection, schedule: Q01DX005 (ip), vehicle: saline with Tween-80) 97 % of control; (dose: 240.0 mg/kg/injection, schedule: Q01DX005 (ip), vehicle: saline with Tween-80) 92 % of control.
For the compound `CC(C)(C)N=C(CCNC1CCCCC1)Nc1c(Cl)cccc1Cl`, the T/C under setting [2] was 100 % of control and the T/C under setting [4] is 106 % of control.
`C1CN2CCO[Si](CC[Si]34OCCN(CCO3)CCO4)(O1)OCC2`: the T/C was 106 % of control (dose: 50.0 mg/kg/injection, schedule: Q01DX005 (ip), vehicle: Klucel (hydroxypropylcellulose) (HPC)); 113 % of control (dose: 100.0 mg/kg/injection, schedule: Q01DX005 (ip), vehicle: Klucel (hydroxypropylcellulose) (HPC)); 94 % of control (dose: 200.0 mg/kg/injection, schedule: Q01DX005 (ip), vehicle: Klucel (hydroxypropylcellulose) (HPC)).
Turning to `CCCC(Nc1nncs1)Nc1nncs1`, the T/C is 101 % of control under setting [9]; 112 % of control and 94 % of control (dose: 100.0 mg/kg/injection, schedule: Q01DX005 (ip), vehicle: saline with Tween-80); 108 % of control (dose: 200.0 mg/kg/injection, schedule: Q01DX005 (ip), vehicle: saline with Tween-80); 157 % of control (dose: 400.0 mg/kg/injection, schedule: Q01DX005 (ip), vehicle: saline with Tween-80).
With `N#CCCN(CCCN1CCOCC1)CN1C(=O)c2ccccc2C1=O`, the T/C runs as follows: under setting [7], 98 % of control; under setting [8], 91 % of control; (dose: 400.0 mg/kg/injection, schedule: Q01DX009 (ip), vehicle: Klucel (hydroxypropylcellulose) (HPC)) 99 % of control.
`CCC(C)(C)c1cccc(C(=O)O)c1O`: the T/C by setting is: (dose: 25.0 mg/kg/injection, schedule: Q04DX003 (ip), vehicle: saline with Tween-80) 100 % of control; (dose: 50.0 mg/kg/injection, schedule: Q04DX003 (ip), vehicle: saline with Tween-80) 118 % of control; (dose: 100.0 mg/kg/injection, schedule: Q04DX003 (ip), vehicle: saline with Tween-80) 106 % of control and 112 % of control.
As for `Cc1nc2sc3c(c2c(=N)n1N)CCCC3`, the T/C was 103 % of control (dose: 12.5 mg/kg/injection, schedule: Q01DX001 (ip), vehicle: Klucel (hydroxypropylcellulose) (HPC)) and 97 % of control (dose: 25.0 mg/kg/injection, schedule: Q01DX001 (ip), vehicle: Klucel (hydroxypropylcellulose) (HPC)).
With `C/C=C1\CN2CCC34c5ccccc5N5C(C6C7CC8N(CCC89c8cccc(O)c8N(C(C)=O)C69)C/C7=C\C)OCC(C1CC23)C54` (centres undefined), the T/C was 106 % of control (dose: 11.25 mg/kg/injection, schedule: Q01DX009 (ip), vehicle: saline with Tween-80); 105 % of control (dose: 22.5 mg/kg/injection, schedule: Q01DX009 (ip), vehicle: saline with Tween-80); 106 % of control (dose: 45.0 mg/kg/injection, schedule: Q01DX009 (ip), vehicle: saline with Tween-80); 104 % of control (dose: 90.0 mg/kg/injection, schedule: Q01DX009 (ip), vehicle: saline with Tween-80).
As for `N#CC1=C(C#N)C(=O)C(Cl)=C(Cl)C1=O`, the T/C by setting is: (dose: 3.13 mg/kg/injection, schedule: Q01DX009 (ip), vehicle: saline) 109 % of control; (dose: 6.25 mg/kg/injection, schedule: Q01DX009 (ip), vehicle: saline) 118 % of control; (dose: 6.25 mg/kg/injection, schedule: Q04DX002 (ip), vehicle: saline) 95 % of control; (dose: 6.25 mg/kg/injection, schedule: Q04DX003 (ip), vehicle: saline) 95 % of control; (dose: 12.5 mg/kg/injection, schedule: Q01DX009 (ip), vehicle: saline) 118 % of control; (dose: 12.5 mg/kg/injection, schedule: Q04DX002 (ip), vehicle: saline) 109 % of control. The T/C by setting is: (dose: 12.5 mg/kg/injection, schedule: Q04DX003 (ip), vehicle: saline) 113 % of control; (dose: 25.0 mg/kg/injection, schedule: Q04DX002 (ip), vehicle: saline with Tween-80) 117 % of control; (dose: 25.0 mg/kg/injection, schedule: Q04DX002 (ip), vehicle: saline) 116 % of control; (dose: 62.5 mg/kg/injection, schedule: Q01DX005 (ip), vehicle: saline) 95 % of control; (dose: 125.0 mg/kg/injection, schedule: Q01DX005 (ip), vehicle: saline) 113 % of control; (dose: 250.0 mg/kg/injection, schedule: Q01DX005 (ip), vehicle: saline) 94 % of control.
Take `CCNCC(O)c1ccc(F)cc1` (centres undefined): the T/C was 101 % of control under setting [3], 96 % of control under setting [5] and 91 % of control under setting [6].
Regarding `CCN(CC)c1cc(=O)n2ccccc2n1`, the T/C is 96 % of control (dose: 60.0 mg/kg/injection, schedule: Q01DX005 (ip), vehicle: Klucel (hydroxypropylcellulose) (HPC)); 100 % of control (dose: 120.0 mg/kg/injection, schedule: Q01DX005 (ip), vehicle: Klucel (hydroxypropylcellulose) (HPC)); 103 % of control (dose: 240.0 mg/kg/injection, schedule: Q01DX005 (ip), vehicle: Klucel (hydroxypropylcellulose) (HPC)).
For `CCOCC(=O)C1(O)Cc2c(O)c3c(c(O)c2C(O)C1)C(=O)c1c(OC)cccc1C3=O` (centres undefined), the T/C is, setting by setting: (dose: 1.56 mg/kg/injection, schedule: Q01DX009 (ip), vehicle: other) 101 % of control; (dose: 3.13 mg/kg/injection, schedule: Q01DX009 (ip), vehicle: other) 100 % of control; (dose: 6.25 mg/kg/injection, schedule: Q01DX009 (ip), vehicle: other) 100 % of control; (dose: 12.5 mg/kg/injection, schedule: Q01DX009 (ip), vehicle: other) 95 % of control; (dose: 25.0 mg/kg/injection, schedule: Q01DX009 (ip), vehicle: other) 103 % of control.
Turning to `COC(=O)Nc1nc2cc(OC)c(OC)cc2c(=O)[nH]1`, the T/C was 111 % of control (dose: 25.0 mg/kg/injection, schedule: Q01DX005 (ip), vehicle: saline with Tween-80) and 107 % of control under setting [9].
Regarding `COC(=O)C12CC(CCC1C13CC=CC(C)(C)C1C(=O)OC3)C(C)C2=O` (centres undefined), the T/C runs as follows: (dose: 100.0 mg/kg/injection, schedule: Q04DX002 (ip), vehicle: saline with Tween-80) 92 % of control; (dose: 200.0 mg/kg/injection, schedule: Q04DX002 (ip), vehicle: saline with Tween-80) 95 % of control; (dose: 400.0 mg/kg/injection, schedule: Q04DX002 (ip), vehicle: saline with Tween-80) 103 % of control.
Take `C[N+](C)(C)C[c-]1[c-][c-][c-][c-]1.[Fe].[c-]1[c-][c-][cH-][c-]1`: the T/C (dose: 1.56 mg/kg/injection, schedule: Q01DX009 (ip), vehicle: saline with Tween-80) is 96 % of control; the T/C (dose: 3.13 mg/kg/injection, schedule: Q01DX009 (ip), vehicle: saline with Tween-80) was 97 % of control; the T/C (dose: 6.25 mg/kg/injection, schedule: Q01DX009 (ip), vehicle: saline with Tween-80) is 99 % of control; the T/C under setting [1] is 100 % of control.
